In brackets after ≈: the same amount, converted by molar mass. Where only a bound is given, the exact number is not on record here.

This is an account of results in patent US5026704A, “Benzo[f]quinoxaline-2,3(1H,4H)-diones” (Novo Nordisk A/S, priority 1987, dated 1991).

The test system of assay [1] is quisqualic acid stimulated ^3 H-GABA-efflux from cultured cortical neurones. The experiment in a line: Antagonism of quisqualic acid stimulated ^3 H-GABA efflux from cultured cortical neurones (release experiments). In kind it is cell-based, mouse. The following applies: Rattus norvegicus, Cortical neurone; concentration which reduces the rate of quisqualic acid stimulated ^3 H-GABA efflux by 50%; 37° C., pH 7.4.

The target of assay [2] is quisqualate type receptors. The assay is described as follows: ^3 H-AMPA binding: displacement of ^3 H-AMPA from quisqualate type receptors in cerebral cortical membrane homogenate. Set-up: species or system rat. The following applies: displacement of 50% of specific ^3 H-AMPA binding; 5 nM ^3 H-AMPA, 0° C., 30 min, pH 7.1. Here is the method: The pharmacological properties of the compounds of the present invention can be illustrated by determining their capability for displacing radioactively labelled 2-amino-3-hydroxy-5-methyl-4-isoxazolepropionic acid (AMPA) from the quisqualate type receptors.
The displacement activity of the compounds may be shown by determining the IC50 value which represents the concentration (μg/ml) which causes a displacement of 50% of the specific binding of ^3 H-AMPA.
500 μl of thawed rat cerebral cortical membrane homogenate in Tris-HCl (30 mM), CaCl2 (2.5 mM) and KSCN (100 mM) pH 7.1 were incubated at 0° C. for 30 min. with 25 μl ^3 H-AMPA (5 nM final concentration) and the test compound and buffer. Nonspecific binding was determined by incubation with L-glutamic acid (600 μM final concentration). The binding reaction was terminated by adding 5 ml of ice-cold buffer followed by filtration through Whatman GF/C glass fibre filters and 2×5 ml wash with ice-cold buffer. Bound radioactivity was measured by scintillation counting. IC50 was determined by Hill analysis of at least four concentrations of test compound.

Usually EC50 stands for the midpoint of the concentration-response curve. A low value points to higher potency in that assay. Broadly, the IC50 is the midpoint of a concentration-inhibition curve. Higher therefore signals weaker potency. For the molecule `Cn1c(=O)c(=O)[nH]c2cc([N+](=O)[O-])ccc21` [Compound 7, 1-Methyl-6-nitroquinoxaline-2,3(1H,4H)-dione], a half-maximal response in assay [1] (EC50) required 2.1 µg/mL (≈ 9.49 µM). Also, the IC50 in assay [2] amounted to 0.96 µg/mL (≈ 4.34 µM).
Take `O=c1[nH]c2c3ccccc3ccc2n(C2CCCCC2)c1=O` [Compound 27k, 4-Cyclohexylbenzo[f]quinoxaline-2,3(1H,4H)-dione]: the EC50 in assay [1] was over 4 µg/mL. The IC50 in assay [2] was 0.61 µg/mL (≈ 2.07 µM).
`O=c1[nH]c2cc([N+](=O)[O-])c(Cl)cc2n(C2CCCCC2)c1=O` [Compound 16, 1-Cyclohexyl-6-nitro-7-chlorquinoxaline-2,3(1H,4H)-dione]: the IC50 in assay [2] was 0.69 µg/mL (≈ 2.13 µM).
Take `Cn1c(=O)c(=O)[nH]c2c3ccccc3ccc21` [Compound 13, 4-Methylbenzo[f]quinoxaline-2,3(1H,4H)-dione]: the EC50 in assay [1] came out at 2.1 µg/mL (≈ 9.28 µM). In assay [2], this molecule showed an IC50 of 0.42 µg/mL (≈ 1.86 µM).
